Like-named read-outs stand apart in the source and are kept apart here.

This assay has as its system P. aeruginosa PA14 col^R 5 (colistin-resistant strain). Kind of assay: microbe, parasite or virus in culture. The class given is cell-based. As to conditions: for IC90: read-out: IC90, synergy with colistin (8 μg/ml), minimum concentration causing at least 90% growth inhibition. As for the experimental part: The compounds identified by in silico screening were tested for their antibacterial activity (in the absence of colistin) and for their synergistic or adjuvant activity with colistin against a colistin-resistant strain of P. aeruginosa grown in the absence or presence of a sub-inhibitory concentration of colistin (8 μg/ml).
This strain over-expresses the am genes responsible for the modification of lipopolysaccharide by the addition of L-amino-arabinose.
The strain was grown in Mueller-Hinton (MH) medium for 8 hours, and inoculated at a cell density of ˜10^6/ml in MH medium supplemented or not with colistin at a concentration of 16 μg/ml. […] The microtitration plates were incubated at 37° C. without stirring for 24 hours. Bacterial growth was assessed by measuring absorbance at 600 nm (A600) in a microplate reader (Victor 2^V, Perkin-Elmer). […] For each compound three independent experiments were conducted, and the averages of the values obtained in the three experiments are considered to determine the values of IC50 e IC90.

The mark [1] stands for this setting: Pseudomonas aeruginosa, PA14, 24 h, read-out: IC50 without colistin.
Where [2] appears, read: read-out: IC50, synergy with colistin (8 μg/ml), PA14 ColR5, colistin 8 μg/ml (sub-inhibitory), minimum concentration causing at least 50% growth inhibition, 24 h.
The mark [3] stands for this setting: PA14 ColR5, colistin 8 μg/ml (sub-inhibitory), 24 h.

`Cc1nccc2c1[nH]c1ccccc12` [BBN135, 1-methyl-9H-pyrido[3,4-b]indole]: the IC50 under setting [1] is above 250 µM and the IC50 under setting [2] was above 250 µM. The IC90 under setting [3] was above 250 µM.

On to `CC1(C)C=Cc2c(cc(O)c3c(=O)c4cc5c(c(O)c4oc23)OC(C)(C)C=C5)O1` [BBN119, 11,22-dihydroxy-7,7,19,19-tetramethyl-2,8,20-trioxapentacyclo [12.8.0.03,120,04,90,016,21]docosa-1(14), 3(12), 4(9), 5, 10, 15, 17, 21-octaen-13-one], for which the IC50 by setting is: under setting [1], above 250 µM; under setting [2], above 250 µM. The IC90 under setting [3] was above 250 µM.

For the compound `COC(=O)[C@]1(C)CCC[C@@]2(C)C3CC[C@@]4(C)C[C@]3(CCC21)CC4=O` (single isomer, unassigned; ent-16) [SR7, methyl ester of ent-16-oxo-beyeran-19-oic acid], the IC50 is, setting by setting: under setting [1], above 250 µM; under setting [2], above 250 µM. The IC90 under setting [3] is above 250 µM.

Turning to `COC(=O)C1=CO[C@@H](O[C@@H]2O[C@H](CO)[C@@H](O)[C@H](O)[C@H]2O)[C@@H]2[C@@H](C)[C@@H](O)C[C@H]12` [BBN139, methyl (1S, 4aS, 6S, 7R, 7aS)-6-hydroxy-7-methyl-1-[(2 S, 3 R, 4 S, 5S, 6R)-3,4,5-trihydroxy-6-(hydroxymethyl)oxan-2-yl]oxy-1,4a, 5,6,7,7a-haxidrocrociclopenta [c] piran-4-carboxylate], the IC50 was above 250 µM under setting [1] and above 250 µM under setting [2]. Further, the IC90 under setting [3] is above 250 µM.

Consider `C=CC(C)(C)c1c2c(c3oc4c(O)c(O)ccc4c(=O)c3c1O)C(C)(C)C(C)O2` (stereo not shown) [BBN120, rheediaxanthone B], for which the IC50 under setting [1] is above 250 µM. Besides, the IC90 under setting [3] was above 250 µM.

For the compound `O=C(CCc1ccc(O)cc1)c1c(O)cc(O)cc1O` [BBN101, 3-(4-hydroxyphenyl)-1-(2,4,6-trihydroxyphenyl)propan-1-one], the IC50 under setting [1] is above 250 µM and the IC50 under setting [2] was above 250 µM. Under setting [3], the IC90 was above 250 µM.

Take `C[C@]12C=C[C@@]3(CCC4[C@@](C)(CO)CCC[C@@]4(C)C3CC1)C2` (stereo partly drawn) [FDA, ent-beyer-15-en-18-ol]: the IC50 was above 250 µM under setting [1] and above 250 µM under setting [2]. Besides, the “antibacterial activity per se” value (in the absence of colistin) was “none of the compounds showed antibacterial activity per se”. Under setting [3], the IC90 is above 250 µM.

`COc1cc2ccc(=O)oc2cc1OC/C=C(\C)CCC=C(C)C` [BBN146, 6-methoxy-7-O-geranyl-coumarin]: the IC50 under setting [1] is above 250 µM and the IC50 under setting [2] was above 250 µM. Also, the IC90 under setting [3] was above 250 µM.

For `COc1cc(O)c(O)c(CC=C(C)C)c1-c1coc2cc(O)cc(O)c2c1=O` [BBN118, 3-[3,4-dihydroxy-6-methoxy-2-(3-methylbut-2-enyl)phenyl]-5,7-dihydroxycromen-4-one], the IC50 under setting [1] was above 250 µM. Moreover, under setting [3], the IC90 was above 250 µM.

Turning to `CC(C)=CCc1c(O)c(C(=O)c2ccccc2)c(O)c2c1OC(C)(C)C=C2` [BBN148, [5,7-dihydroxy-2,2-dimethyl-8-(3-methylbut-2-enyl)cromen-6-yl]-phenylmethanone], the IC50 under setting [1] was above 250 µM and the IC50 under setting [2] is above 250 µM. The IC90 under setting [3] is above 250 µM.

On to `CC(C)=CCc1c(O)cc2c(c1O)C(=O)[C@H](O)[C@@H](c1ccc(O)cc1)O2` [BBN147, 6-prenyl-aromadendrine], for which the IC50 under setting [1] was above 250 µM. Also, the IC90 under setting [3] was above 250 µM.

`O=C(O)c1cc(O)c2c(c1)C(=O)c1cccc(O)c1C2=O` [BBN152, 4,5-dihydroxy-9,10-dioxoanthracene-2-carboxylic acid]: the IC50 is above 250 µM under setting [1] and above 250 µM under setting [2]. The IC90 under setting [3] is above 250 µM.

For the compound `O=C(/C=C/c1ccc(O)c(O)c1)O[C@@H]1C[C@](O)(C(=O)O)C[C@@H](O)[C@H]1O` [BBN53, (1S, 3R, 4R, 5R)-3-[(E)-3-(3,4-dihydroxyphenyl)prop-2-enoyl]oxy-1,4,5-trihydroxycyclohexane-1-carboxylic acid], the IC50 is above 250 µM under setting [1] and above 250 µM under setting [2]. Besides, the IC90 under setting [3] was above 250 µM.

The record behind these values is patent publication US20220259249A1, “INHIBITORS OF ANTIBIOTIC RESISTANCE MEDIATED BY ARNT” (priority 2019, published 2022).
